# Source: PubChem BioAssay (NCI)
#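 Each compound was tested at five concentrations against cells in 96-well plates for 48 hours. Here, GI50 denotes the concentration required for 50% inhibition of growth. TGI: concentration producing complete growth inhibition.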
# Assays:
# Assay in all cases: inhibition of tumour cell growth, NCI panel, 48 h
# PC-3 prostate = tested on: PC-3 prostate
# HCT-15 colon = tested on: HCT-15 colon
# MDA-N = tested on: MDA-N
# BT-549 breast = tested on: BT-549 breast
# CAKI-1 renal = tested on: CAKI-1 renal
# RXF 393 renal = tested on: RXF 393 renal
# UACC-257 melanoma = tested on: UACC-257 melanoma
# MDA-MB-231 breast = tested on: MDA-MB-231 breast
# KM12 colon = tested on: KM12 colon
# HOP-62 NSCLC = tested on: HOP-62 NSCLC
# LOX IMVI melanoma = tested on: LOX IMVI melanoma
# NCI-H23 lung = tested on: NCI-H23 lung
# MALME-3M melanoma = tested on: MALME-3M melanoma
# COLO 205 colon = tested on: COLO 205 colon
# NCI-H522 lung = tested on: NCI-H522 lung
# SK-OV-3 ovarian = tested on: SK-OV-3 ovarian
# SF-268 CNS = tested on: SF-268 CNS
# SK-MEL-5 melanoma = tested on: SK-MEL-5 melanoma
# ACHN renal = tested on: ACHN renal
# DU-145 prostate = tested on: DU-145 prostate
# EKVX NSCLC = tested on: EKVX NSCLC
# HCT-116 colon = tested on: HCT-116 colon
# OVCAR-3 ovarian = tested on: OVCAR-3 ovarian
# OVCAR-5 ovarian = tested on: OVCAR-5 ovarian
# MCF7 breast = tested on: MCF7 breast
# TK-10 renal = tested on: TK-10 renal
# UO-31 renal = tested on: UO-31 renal
# SF-539 CNS = tested on: SF-539 CNS
# SF-295 CNS = tested on: SF-295 CNS
# SNB-19 CNS = tested on: SNB-19 CNS
# IGROV1 ovarian = tested on: IGROV1 ovarian
# UACC-62 melanoma = tested on: UACC-62 melanoma
# NCI-H226 lung = tested on: NCI-H226 lung
# A549 NSCLC = tested on: A549 NSCLC
# HCC-2998 colon = tested on: HCC-2998 colon
# 786-0 renal = tested on: 786-0 renal
# NCI-H460 lung = tested on: NCI-H460 lung
# NCI/ADR-RES ovarian = tested on: NCI/ADR-RES ovarian
# M14 melanoma = tested on: M14 melanoma
# SK-MEL-28 melanoma = tested on: SK-MEL-28 melanoma
# OVCAR-4 ovarian = tested on: OVCAR-4 ovarian
# T-47D breast = tested on: T-47D breast
# OVCAR-8 ovarian = tested on: OVCAR-8 ovarian
# HT29 colon = tested on: HT29 colon
# HS 578T breast = tested on: HS 578T breast
# HOP-92 NSCLC = tested on: HOP-92 NSCLC
# HL-60(TB) leukemia = tested on: HL-60(TB) leukemia
# SR leukemia = tested on: SR leukemia
# MDA-MB-435 = tested on: MDA-MB-435
# SK-MEL-2 melanoma = tested on: SK-MEL-2 melanoma
# K-562 leukemia = tested on: K-562 leukemia
# SN12C renal = tested on: SN12C renal
# MOLT-4 leukemia = tested on: MOLT-4 leukemia
# RPMI-8226 leukemia = tested on: RPMI-8226 leukemia
# SNB-75 CNS = tested on: SNB-75 CNS
# U251 CNS = tested on: U251 CNS
# CCRF-CEM leukemia = tested on: CCRF-CEM leukemia
# A498 renal = tested on: A498 renal
# SW-620 colon = tested on: SW-620 colon
structure (smiles),measurement,setting,value
Cc1cc(C)nc(NCCC(O)(P(=O)(O)O)P(=O)(O)O)n1,TGI,PC-3 prostate,> 100 µM
same,TGI,HCT-15 colon,> 100 µM
same,TGI,MDA-N,> 100 µM
same,TGI,BT-549 breast,> 100 µM
same,TGI,CAKI-1 renal,> 100 µM
same,TGI,RXF 393 renal,> 100 µM
same,TGI,UACC-257 melanoma,> 100 µM
same,TGI,MDA-MB-231 breast,> 100 µM
same,TGI,KM12 colon,> 100 µM
same,TGI,HOP-62 NSCLC,> 100 µM
same,TGI,LOX IMVI melanoma,> 100 µM
same,TGI,NCI-H23 lung,> 100 µM
same,TGI,MALME-3M melanoma,> 100 µM
same,TGI,COLO 205 colon,> 100 µM
same,TGI,NCI-H522 lung,> 100 µM
same,TGI,SK-OV-3 ovarian,> 100 µM
same,TGI,SF-268 CNS,> 100 µM
same,TGI,SK-MEL-5 melanoma,> 100 µM
same,TGI,ACHN renal,> 100 µM
same,TGI,DU-145 prostate,> 100 µM
same,TGI,EKVX NSCLC,> 100 µM
same,TGI,HCT-116 colon,> 100 µM
same,TGI,OVCAR-3 ovarian,> 100 µM
same,TGI,OVCAR-5 ovarian,> 100 µM
same,TGI,MCF7 breast,> 100 µM
same,TGI,TK-10 renal,> 100 µM
same,TGI,UO-31 renal,> 100 µM
same,TGI,SF-539 CNS,> 100 µM
same,TGI,SF-295 CNS,> 100 µM
same,TGI,SNB-19 CNS,> 100 µM
same,TGI,IGROV1 ovarian,> 100 µM
same,TGI,UACC-62 melanoma,> 100 µM
same,TGI,NCI-H226 lung,> 100 µM
same,TGI,A549 NSCLC,> 100 µM
same,TGI,HCC-2998 colon,> 100 µM
same,TGI,786-0 renal,> 100 µM
same,TGI,NCI-H460 lung,> 100 µM
same,TGI,NCI/ADR-RES ovarian,> 100 µM
same,TGI,M14 melanoma,> 100 µM
CCCOc1ccc(/C=N/Nc2cc(C)nc3ccc(Cl)cc23)cc1,GI50,PC-3 prostate,1.53 µM
same,TGI,PC-3 prostate,3.13 µM
same,GI50,SK-MEL-28 melanoma,1.73 µM
same,TGI,SK-MEL-28 melanoma,3.15 µM
same,GI50,HCT-15 colon,1.52 µM
same,TGI,HCT-15 colon,2.94 µM
same,GI50,BT-549 breast,2.17 µM
same,TGI,BT-549 breast,5.46 µM
same,GI50,OVCAR-4 ovarian,1.71 µM
same,TGI,OVCAR-4 ovarian,3.2 µM
same,GI50,CAKI-1 renal,1.78 µM
same,TGI,CAKI-1 renal,3.2 µM
same,GI50,T-47D breast,1.71 µM
same,TGI,T-47D breast,3.62 µM
same,GI50,RXF 393 renal,1.55 µM
same,TGI,RXF 393 renal,2.94 µM
same,GI50,UACC-257 melanoma,1.79 µM
same,TGI,UACC-257 melanoma,3.32 µM
same,GI50,OVCAR-8 ovarian,2.31 µM
same,TGI,OVCAR-8 ovarian,4.53 µM
same,GI50,MDA-MB-231 breast,1.85 µM
same,TGI,MDA-MB-231 breast,3.49 µM
same,GI50,KM12 colon,1.8 µM
same,TGI,KM12 colon,3.35 µM
same,GI50,HT29 colon,1.8 µM
same,TGI,HT29 colon,3.49 µM
same,GI50,HS 578T breast,2.15 µM
same,TGI,HS 578T breast,4.63 µM
same,GI50,HOP-92 NSCLC,1.51 µM
same,TGI,HOP-92 NSCLC,3.11 µM
same,GI50,HOP-62 NSCLC,1.58 µM
same,TGI,HOP-62 NSCLC,2.98 µM
same,GI50,LOX IMVI melanoma,1.7 µM
same,TGI,LOX IMVI melanoma,3.1 µM
same,GI50,NCI-H23 lung,1.81 µM
same,TGI,NCI-H23 lung,3.52 µM
same,GI50,MALME-3M melanoma,1.79 µM
same,TGI,MALME-3M melanoma,3.26 µM
same,GI50,COLO 205 colon,1.82 µM
same,TGI,COLO 205 colon,3.4 µM
same,GI50,NCI-H522 lung,1.75 µM
same,TGI,NCI-H522 lung,3.42 µM
same,GI50,SK-OV-3 ovarian,1.78 µM
same,TGI,SK-OV-3 ovarian,3.18 µM
same,GI50,HL-60(TB) leukemia,1.83 µM
same,TGI,HL-60(TB) leukemia,3.78 µM
same,GI50,SF-268 CNS,2.24 µM
same,TGI,SF-268 CNS,4.19 µM
same,GI50,SR leukemia,1.17 µM
same,TGI,SR leukemia,3.75 µM
same,GI50,MDA-MB-435,1.8 µM
same,TGI,MDA-MB-435,3.24 µM
same,GI50,SK-MEL-5 melanoma,1.54 µM
same,TGI,SK-MEL-5 melanoma,2.88 µM
same,GI50,ACHN renal,1.74 µM
same,TGI,ACHN renal,3.12 µM
same,GI50,SK-MEL-2 melanoma,1.73 µM
same,TGI,SK-MEL-2 melanoma,3.22 µM
same,GI50,K-562 leukemia,1.48 µM
same,TGI,K-562 leukemia,3.13 µM
same,GI50,DU-145 prostate,1.9 µM
same,TGI,DU-145 prostate,3.42 µM
same,GI50,EKVX NSCLC,1.64 µM
same,TGI,EKVX NSCLC,3.05 µM
same,GI50,HCT-116 colon,1.7 µM
same,TGI,HCT-116 colon,3.32 µM
same,GI50,OVCAR-3 ovarian,2.13 µM
same,TGI,OVCAR-3 ovarian,3.7 µM
same,GI50,SN12C renal,1.82 µM
same,TGI,SN12C renal,3.31 µM
same,GI50,OVCAR-5 ovarian,1.87 µM
same,TGI,OVCAR-5 ovarian,3.28 µM
same,GI50,MCF7 breast,1.67 µM
same,TGI,MCF7 breast,3.4 µM
same,GI50,TK-10 renal,2.04 µM
same,TGI,TK-10 renal,3.47 µM
same,GI50,MOLT-4 leukemia,1.81 µM
same,TGI,MOLT-4 leukemia,3.77 µM
same,GI50,UO-31 renal,1.56 µM
same,TGI,UO-31 renal,2.91 µM
same,GI50,SF-539 CNS,1.79 µM
same,TGI,SF-539 CNS,3.2 µM
same,GI50,RPMI-8226 leukemia,1.81 µM
same,TGI,RPMI-8226 leukemia,3.99 µM
same,GI50,SF-295 CNS,1.72 µM
same,TGI,SF-295 CNS,3.2 µM
same,GI50,SNB-75 CNS,1.94 µM
same,TGI,SNB-75 CNS,3.54 µM
same,GI50,SNB-19 CNS,1.95 µM
same,TGI,SNB-19 CNS,3.54 µM
same,GI50,U251 CNS,2.05 µM
same,TGI,U251 CNS,3.55 µM
same,GI50,IGROV1 ovarian,1.92 µM
same,TGI,IGROV1 ovarian,3.63 µM
same,GI50,UACC-62 melanoma,1.76 µM
same,TGI,UACC-62 melanoma,3.24 µM
same,GI50,CCRF-CEM leukemia,1.78 µM
same,TGI,CCRF-CEM leukemia,4.08 µM
same,GI50,NCI-H226 lung,1.69 µM
same,TGI,NCI-H226 lung,3.35 µM
same,GI50,A549 NSCLC,1.72 µM
same,TGI,A549 NSCLC,3.35 µM
same,GI50,HCC-2998 colon,2.03 µM
same,TGI,HCC-2998 colon,3.53 µM
same,GI50,786-0 renal,1.86 µM
same,TGI,786-0 renal,3.42 µM
same,GI50,A498 renal,1.72 µM
same,TGI,A498 renal,3.16 µM
same,GI50,SW-620 colon,1.96 µM
same,TGI,SW-620 colon,3.79 µM
same,GI50,NCI-H460 lung,2.04 µM
same,TGI,NCI-H460 lung,4.03 µM
same,GI50,NCI/ADR-RES ovarian,1.9 µM
same,TGI,NCI/ADR-RES ovarian,3.81 µM
same,GI50,M14 melanoma,1.69 µM
same,TGI,M14 melanoma,3.23 µM
C#C[C@]1(O)[C@@H](CO)O[C@@H](n2ccc(N)nc2=O)[C@@H]1O,TGI,PC-3 prostate,0.762 µM
same,TGI,SK-MEL-28 melanoma,4.27 µM
same,TGI,HCT-15 colon,> 100 µM
same,TGI,MDA-N,0.175 µM
same,TGI,BT-549 breast,22.2 µM
same,TGI,OVCAR-4 ovarian,5.33 µM
same,TGI,CAKI-1 renal,0.122 µM
same,TGI,RXF 393 renal,2.12 µM
same,TGI,UACC-257 melanoma,8.03 µM
same,TGI,OVCAR-8 ovarian,> 100 µM
same,TGI,MDA-MB-231 breast,> 100 µM
same,TGI,KM12 colon,4.4 µM
same,TGI,HS 578T breast,> 40 µM
same,TGI,HOP-92 NSCLC,12.7 µM
same,TGI,LOX IMVI melanoma,0.0945 µM
same,TGI,NCI-H23 lung,1.78 µM
same,TGI,MALME-3M melanoma,0.925 µM
same,TGI,COLO 205 colon,0.203 µM
same,TGI,NCI-H522 lung,0.0365 µM
same,TGI,SK-OV-3 ovarian,> 100 µM
same,TGI,HL-60(TB) leukemia,> 100 µM
same,TGI,SF-268 CNS,6.04 µM
same,TGI,MDA-MB-435,0.219 µM
same,TGI,SK-MEL-5 melanoma,0.371 µM
same,TGI,ACHN renal,0.612 µM
same,TGI,SK-MEL-2 melanoma,0.617 µM
same,TGI,K-562 leukemia,> 100 µM
same,TGI,DU-145 prostate,6.22 µM
same,TGI,EKVX NSCLC,> 19.9 µM
same,TGI,HCT-116 colon,> 33.9 µM
same,TGI,OVCAR-3 ovarian,> 20.8 µM
same,TGI,MCF7 breast,> 100 µM
same,TGI,TK-10 renal,2.65 µM
same,TGI,MOLT-4 leukemia,> 32 µM
same,TGI,UO-31 renal,0.395 µM
same,TGI,SF-539 CNS,13.5 µM
same,TGI,RPMI-8226 leukemia,0.192 µM
same,TGI,SF-295 CNS,3.07 µM
same,TGI,SNB-75 CNS,1.82 µM
same,TGI,SNB-19 CNS,> 24 µM
same,TGI,IGROV1 ovarian,> 38.1 µM
same,TGI,UACC-62 melanoma,0.4 µM
same,TGI,CCRF-CEM leukemia,4.27 µM
same,TGI,NCI-H226 lung,3.66 µM
same,TGI,A549 NSCLC,> 100 µM
same,TGI,HCC-2998 colon,0.196 µM
same,TGI,A498 renal,0.54 µM
same,TGI,SW-620 colon,3.92 µM
same,TGI,NCI-H460 lung,0.508 µM
same,TGI,M14 melanoma,3.06 µM
